For 15 compounds, inhibition results are on record in patent US9029389B2 (Institut Pasteur Korea, priority 2011, dated 2015).

SMILES strings stand for the structures.

The target in this test is T1, Human 5-lipoxygenase (Homo sapiens, UniProt P09917).
T1 construct: purchased Cayman 60402; host or cells: insect cells
T1 sequence (P09917 1-674): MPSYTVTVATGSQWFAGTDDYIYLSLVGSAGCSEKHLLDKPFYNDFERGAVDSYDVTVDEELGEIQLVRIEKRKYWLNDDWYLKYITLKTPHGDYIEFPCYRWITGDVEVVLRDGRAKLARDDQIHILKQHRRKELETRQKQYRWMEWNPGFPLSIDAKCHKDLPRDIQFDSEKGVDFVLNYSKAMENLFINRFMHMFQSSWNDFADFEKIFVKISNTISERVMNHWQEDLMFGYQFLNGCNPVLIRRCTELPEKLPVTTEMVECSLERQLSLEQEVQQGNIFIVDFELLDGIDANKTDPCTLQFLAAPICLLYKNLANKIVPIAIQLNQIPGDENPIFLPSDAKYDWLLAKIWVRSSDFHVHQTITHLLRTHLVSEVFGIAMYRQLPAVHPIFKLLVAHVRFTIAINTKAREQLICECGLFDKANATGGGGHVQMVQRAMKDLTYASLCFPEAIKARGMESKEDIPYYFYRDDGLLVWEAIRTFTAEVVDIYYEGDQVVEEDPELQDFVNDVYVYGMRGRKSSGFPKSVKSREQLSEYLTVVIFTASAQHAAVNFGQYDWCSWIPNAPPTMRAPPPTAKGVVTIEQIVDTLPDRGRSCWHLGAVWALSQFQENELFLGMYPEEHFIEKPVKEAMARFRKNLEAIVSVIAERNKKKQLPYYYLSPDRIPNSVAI
In words: Activity of compounds against 5-LO enzyme (LTB4 measurement and/or fluorescence method). Format: biochemical. The settings on record: 5-LO, single concentration of 10 uM in duplicate. The essentials: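 Two read-outs: LTB4 measured by EIA and/or LC/MS/MS with LTB4-d4 standard after 15 min RT compound preincubation with insect-cell 5-LO and a 5 min 37 °C reaction on 3 uM arachidonic acid (0.1 mM ATP, pH 7.4). The room-temperature fluorescence format used 20 uM H2DCFDA, 100 uM ATP, 3 uM arachidonic acid, 5 min; IC50 from 6/11-point curves.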
On to `CCc1nc2ccc(Cl)cn2c1C(=O)N1CCC(OCc2ccc(Cl)cc2)CC1` [compound 332, (6-chloro-2-ethylimidazo[1,2-a]pyridin-3-yl)(4-((4-chlorobenzyl)oxy)piperidin-1-yl)methanone], for which the inhibition at 10 µM is less than 40%. Next, `CCc1nc2ccc(Cl)cn2c1C(=O)N1CCC(OCc2ccc(F)cc2)CC1` [compound 333, (6-chloro-2-ethylimidazo[1,2-a]pyridin-3-yl)(4-((4-fluorobenzyl)oxy)piperidin-1-yl)methanone]: less than 40%.

In turn, `CCc1nc2ccc(Cl)cn2c1C(=O)N1CCC(OCc2ccc(C(F)(F)F)cc2)CC1` [compound 334, (6-chloro-2-ethylimidazo[1,2-a]pyridin-3-yl)(4-((4-(trifluoromethyl)benzyl)oxy)piperidin-1-yl)methanone] came in with an inhibition at 10 µM of less than 40%. Next, `CCc1nc2ccc(Cl)cn2c1C(=O)N1CCC(OCc2ccc(OC)cc2)CC1` [compound 335, (6-chloro-2-ethylimidazo[1,2-a]pyridin-3-yl)(4-((4-methoxybenzyl)oxy)piperidin-1-yl)methanone]: less than 40%; `CCc1nc2ccc(Cl)cn2c1C(=O)N1CCC(OCc2cccc(F)c2)CC1` [compound 336, (6-chloro-2-ethylimidazo[1,2-a]pyridin-3-yl)(4-((3-fluorobenzyl)oxy)piperidin-1-yl)methanone]: less than 40%. On to `CCc1nc2ccc(Cl)cn2c1C(=O)N1CCC(OCc2ccccc2F)CC1` [compound 337, (6-chloro-2-ethylimidazo[1,2-a]pyridin-3-yl)(4-((2-fluorobenzyl)oxy)piperidin-1-yl)methanone], for which the inhibition at 10 µM was less than 40%. With `CCc1nc2ccc(Cl)cn2c1CNCc1ccc(F)cc1` [compound 338, 1-(6-chloro-2-ethylimidazo[1,2-a]pyridin-3-yl)-N-(4-fluorobenzyl)methanamine] the figure was less than 40%. Next, `CCc1nc2ccc(Cl)cn2c1CNCc1ccc(N(C)C)cc1` [compound 339, 4-((((6-chloro-2-ethylimidazo[1,2-a]pyridin-3-yl)methyl)amino)methyl)-N,N-dimethylaniline]: less than 40%; `CCc1nc2ccc(Cl)cn2c1CNCc1ccc(N2CCC(O)CC2)cc1` [compound 340, 1-(4-((((6-chloro-2-ethylimidazo[1,2-a]pyridin-3-yl)methyl)amino)methyl)phenyl)piperidin-4-ol]: less than 40%. Next, `CCc1nc2ccc(Cl)cn2c1CNCc1ccc(N2CCC(OCc3ccccc3)CC2)cc1` [compound 341, N-(4-(4-(benzyloxy)piperidin-1-yl)benzyl)-1-(6-chloro-2-ethylimidazo[1,2-a]pyridin-3-yl)methanamine]: 40 to 69%; `CCc1nc2ccc(Cl)cn2c1CNCCc1ccccn1` [compound 342, N-((6-chloro-2-ethylimidazo[1,2-a]pyridin-3-yl)methyl)-2-(pyridin-2-yl)ethanamine]: less than 40%. Take `CCc1nc2ccc(Cl)cn2c1CNCCc1cccnc1` [compound 343, N-((6-chloro-2-ethylimidazo[1,2-a]pyridin-3-yl)methyl)-2-(pyridin-3-yl)ethanamine]: the inhibition at 10 µM is less than 40%.

In turn, `CCc1nc2ccc(Cl)cn2c1CNCCc1ccncc1` [compound 344, N-((6-chloro-2-ethylimidazo[1,2-a]pyridin-3-yl)methyl)-2-(pyridin-4-yl)ethanamine] came in with an inhibition at 10 µM of less than 40%. Next, `CCc1nc2ccc(Cl)cn2c1CNC1CCN(Cc2ccccc2)C1` (stereo not drawn) [compound 345, 1-Benzyl-N-((6-chloro-2-ethylimidazo[1,2-a]pyridin-3-yl)methyl)pyrrolidin-3-amine]: less than 40%; `CCc1nc2ccc(Cl)cn2c1CNCc1ccc(N2CCC3(CC2)OCCO3)cc1` [compound 346, N-(4-(1,4-dioxa-8-azaspiro[4.5]decan-8-yl)benzyl)-1-(6-chloro-2-ethylimidazo[1,2-a]pyridin-3-yl)methanamine]: less than 40%.

A word on the inhibition: it is the percentage by which the read-out fell short of the control.
